Measurements taken from PubChem BioAssay (NCI).
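Tested at 5 concentrations; 48 h exposure; 96-well plates; endpoints linearly interpolated, else capped at highest concentration. GI50 marks 50% less growth. At the TGI there is no net growth.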

Legend:
Test in all cases: NCI-60 cell line screen, 48 h
[1] = tested on: 786-0 renal
[2] = tested on: A549 NSCLC
[3] = tested on: CAKI-1 renal
[4] = tested on: COLO 205 colon
[5] = tested on: DU-145 prostate
[6] = tested on: EKVX NSCLC
[7] = tested on: HCC-2998 colon
[8] = tested on: HCT-15 colon
[9] = tested on: HL-60(TB) leukemia
[10] = tested on: HOP-62 NSCLC
[11] = tested on: HT29 colon
[12] = tested on: IGROV1 ovarian
[13] = tested on: K-562 leukemia
[14] = tested on: KM12 colon
[15] = tested on: M14 melanoma
[16] = tested on: MALME-3M melanoma
[17] = tested on: MCF7 breast
[18] = tested on: MDA-MB-231 breast
[19] = tested on: MDA-N
[20] = tested on: MOLT-4 leukemia
[21] = tested on: NCI-H23 lung
[22] = tested on: OVCAR-8 ovarian
[23] = tested on: PC-3 prostate
[24] = tested on: RPMI-8226 leukemia
[25] = tested on: RXF 393 renal
[26] = tested on: SF-268 CNS
[27] = tested on: SF-295 CNS
[28] = tested on: SK-MEL-28 melanoma
[29] = tested on: SK-MEL-5 melanoma
[30] = tested on: SK-OV-3 ovarian
[31] = tested on: SN12C renal
[32] = tested on: SNB-75 CNS
[33] = tested on: SR leukemia
[34] = tested on: SW-620 colon
[35] = tested on: T-47D breast
[36] = tested on: TK-10 renal
[37] = tested on: UACC-257 melanoma
[38] = tested on: UACC-62 melanoma
[39] = tested on: ACHN renal
[40] = tested on: CCRF-CEM leukemia
[41] = tested on: HCT-116 colon
[42] = tested on: MDA-MB-435
[43] = tested on: NCI-H460 lung
[44] = tested on: NCI-H522 lung
[45] = tested on: OVCAR-3 ovarian
[46] = tested on: UO-31 renal
[47] = tested on: A498 renal
[48] = tested on: BT-549 breast
[49] = tested on: HOP-92 NSCLC
[50] = tested on: NCI-H226 lung
[51] = tested on: NCI/ADR-RES ovarian
[52] = tested on: OVCAR-4 ovarian
[53] = tested on: OVCAR-5 ovarian
[54] = tested on: SF-539 CNS
[55] = tested on: SK-MEL-2 melanoma
[56] = tested on: SNB-19 CNS
[57] = tested on: U251 CNS
[58] = tested on: LOX IMVI melanoma

Clc1ccc(/C=N/Nc2nnc3c4ccccc4c4ncccc4c3n2)cc1
TGI [1]: > 10 µM | TGI [2]: > 10 µM | TGI [3]: > 10 µM | TGI [4]: > 10 µM | TGI [5]: > 10 µM | TGI [6]: > 10 µM | TGI [7]: > 10 µM | TGI [8]: > 10 µM | TGI [9]: > 10 µM | TGI [10]: > 10 µM | TGI [11]: > 10 µM | TGI [12]: > 10 µM | TGI [13]: > 10 µM | TGI [14]: > 10 µM | TGI [15]: > 10 µM | TGI [16]: > 10 µM | TGI [17]: > 10 µM | TGI [18]: > 10 µM | TGI [19]: > 10 µM | TGI [20]: > 10 µM | TGI [21]: > 10 µM | TGI [22]: > 10 µM | TGI [23]: > 10 µM | TGI [24]: > 10 µM | TGI [25]: > 10 µM | TGI [26]: > 10 µM | TGI [27]: > 10 µM | TGI [28]: > 10 µM | TGI [29]: > 10 µM | TGI [30]: > 10 µM | TGI [31]: > 10 µM | TGI [32]: > 10 µM | TGI [33]: > 10 µM | TGI [34]: > 10 µM | TGI [35]: > 10 µM | TGI [36]: > 10 µM | TGI [37]: > 10 µM | TGI [38]: > 10 µM

O=C(O)CC(NC(=O)CP(=O)(O)O)C(=O)O.[NH-]C1CCCCC1[NH-].[Pt+2] (stereo not given)
GI50 [1]: 52 µM | GI50 [2]: 56.4 µM | GI50 [39]: 84.7 µM | GI50 [3]: 96.2 µM | GI50 [40]: 18 µM | GI50 [4]: 51 µM | GI50 [41]: 30.4 µM | GI50 [8]: 67.9 µM | GI50 [9]: 40.2 µM | GI50 [11]: 56.3 µM | GI50 [13]: 5.38 µM | GI50 [14]: 84.1 µM | GI50 [15]: 77.2 µM | GI50 [17]: 75.8 µM | GI50 [42]: 75.9 µM | GI50 [19]: 70.5 µM | GI50 [20]: 0.675 µM | TGI [20]: 31.4 µM | GI50 [43]: 42.2 µM | GI50 [44]: 60.8 µM | GI50 [45]: 88.3 µM | GI50 [22]: 74.4 µM | GI50 [24]: 5.93 µM | GI50 [26]: 78.8 µM | GI50 [27]: 56.3 µM | GI50 [29]: 70.2 µM | GI50 [31]: 96.6 µM | GI50 [34]: 19.6 µM | GI50 [35]: 94.7 µM | GI50 [46]: 41.3 µM

O=C(NN1C(=O)CSC1c1ccco1)c1ccncc1 (stereo not given)
TGI [1]: > 100 µM | TGI [47]: > 100 µM | TGI [2]: > 100 µM | TGI [39]: > 100 µM | TGI [48]: > 100 µM | TGI [3]: > 100 µM | TGI [40]: > 100 µM | TGI [4]: > 100 µM | TGI [5]: > 100 µM | TGI [6]: > 100 µM | TGI [7]: > 100 µM | TGI [41]: > 100 µM | TGI [8]: > 100 µM | TGI [9]: > 100 µM | TGI [10]: > 100 µM | TGI [49]: > 100 µM | TGI [11]: > 100 µM | TGI [12]: > 100 µM | TGI [13]: > 100 µM | TGI [14]: > 100 µM | TGI [15]: > 100 µM | TGI [16]: > 100 µM | TGI [17]: > 100 µM | TGI [18]: > 100 µM | TGI [42]: > 100 µM | TGI [19]: > 100 µM | TGI [20]: > 100 µM | TGI [50]: > 100 µM | TGI [21]: > 100 µM | TGI [43]: > 100 µM | TGI [44]: > 100 µM | TGI [51]: > 100 µM | TGI [45]: > 100 µM | TGI [52]: > 100 µM | TGI [53]: > 100 µM | TGI [22]: > 100 µM | TGI [23]: > 100 µM | TGI [24]: > 100 µM | TGI [25]: > 100 µM | TGI [26]: > 100 µM | TGI [27]: > 100 µM | TGI [54]: > 100 µM | TGI [55]: > 100 µM | TGI [28]: > 100 µM | TGI [29]: > 100 µM | TGI [30]: > 100 µM | TGI [31]: > 100 µM | TGI [56]: > 100 µM | TGI [34]: > 100 µM | TGI [35]: > 100 µM | TGI [36]: > 100 µM | TGI [57]: > 100 µM | TGI [37]: > 100 µM | TGI [38]: > 100 µM | TGI [46]: > 100 µM

COc1cc(/C=c2/c3ccccc3n3c2cc(-c2ccccc2)[n+]3C)cc(OC)c1OC
TGI [1]: 16.4 µM | TGI [47]: > 58.3 µM | TGI [2]: > 100 µM | TGI [39]: 15 µM | TGI [48]: 11.8 µM | TGI [3]: 11.8 µM | TGI [40]: > 28.9 µM | TGI [4]: 3.22 µM | TGI [5]: 18.4 µM | TGI [6]: 22.4 µM | TGI [7]: 19 µM | TGI [41]: 6.96 µM | TGI [8]: 18.5 µM | TGI [9]: 7.2 µM | TGI [10]: 19.5 µM | TGI [49]: 12.3 µM | TGI [11]: 11.4 µM | TGI [12]: 23 µM | TGI [13]: 15.4 µM | TGI [14]: 3.67 µM | TGI [58]: 12.6 µM | TGI [15]: > 35.8 µM | TGI [16]: 5.67 µM | TGI [17]: 20.6 µM | TGI [18]: 14.8 µM | TGI [42]: 6.19 µM | TGI [19]: 34.6 µM | TGI [20]: > 64.9 µM | TGI [50]: 32.8 µM | TGI [21]: 14.8 µM | TGI [43]: 17.1 µM | TGI [44]: 9.6 µM | TGI [51]: > 100 µM | TGI [45]: 6.82 µM | TGI [52]: 8.61 µM | TGI [53]: 21.4 µM | TGI [22]: 12.9 µM | TGI [23]: 14.6 µM | TGI [24]: > 32.1 µM | TGI [25]: 6.18 µM | TGI [26]: 22.9 µM | TGI [27]: 19.2 µM | TGI [54]: 8.64 µM | TGI [55]: 8.06 µM | TGI [28]: 19.1 µM | TGI [29]: 6.73 µM | TGI [30]: 23.2 µM | TGI [31]: 12 µM | TGI [56]: 17.9 µM | TGI [32]: 15.2 µM | TGI [34]: 14.5 µM | TGI [35]: 19.3 µM | TGI [36]: 17.4 µM | TGI [57]: 13.6 µM | TGI [37]: 7.68 µM | TGI [38]: 10.5 µM | TGI [46]: > 35.9 µM
